For experiment [1], the target named is T1, wt human LRRK2, catalytic site (Homo sapiens, UniProt Q5S007).
T1 construct: 5 nM wt human LRRK2, catalytic site; purchased ThermoFisher
Put plainly: TR-FRET LanthaScreen Eu Kinase Binding Assay, LRRK2 wt. Conditions: one range stated for wt and G2019, read-out: IC50, Activity Toward LRRK2(Wt). Summed up: (§1)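 NUAK1: 8 nM enzyme, 2 nM Eu-anti-His antibody, 5 nM Tracer 236. LRRK2 wt/G2019S: 5 nM enzyme, 2 nM Eu-anti-GST antibody, 10 nM Tracer 236. Kinase Buffer A, 1 h RT, TR-FRET ratio.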

Experiment [2] deals with T2, wt human JAK2, catalytic site (Homo sapiens, UniProt O60674).
T2 construct: wt human JAK2, catalytic site; purchased SignalChem
T2 sequence (O60674 849-1124 limits assumed): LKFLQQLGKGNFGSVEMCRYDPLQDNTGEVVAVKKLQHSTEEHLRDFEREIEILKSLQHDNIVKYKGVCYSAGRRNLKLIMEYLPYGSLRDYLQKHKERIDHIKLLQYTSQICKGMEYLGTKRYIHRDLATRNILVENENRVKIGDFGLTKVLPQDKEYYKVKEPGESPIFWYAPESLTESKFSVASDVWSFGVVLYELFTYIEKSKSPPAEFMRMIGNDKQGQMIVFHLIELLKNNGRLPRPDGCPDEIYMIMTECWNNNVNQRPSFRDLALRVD
Put plainly: HTRF KinEASE assay, JAK2. It counts as biochemical. Conditions: assay format not given (Z'-LYTE or HTRF KinEASE); read-out: IC50, Activity Toward JAK2. The method, then:
Basic protocol for HTRF KinEASE assay (Cisbio/FRA) inhibitor studies involved two steps: • Enzymatic step: Addition of 4 μL of test compound in corresponding DMSO dilutions, 4 μL of kinase/substrate mixture, 2 μL of ATP into 384 well small volume plates. Incubation for at least 30 minutes at room temperature. • Detection step: Addition of 5 μL antibody and 5 μL streptavidin-XL665, read plate after 60 minutes. Data analysis of emission ratios according KinEASE assay protocol.
(§2) Kinase and assay components were adjusted to final concentrations according to kit protocol. For TYK2: 2 nM wt human TYK2, catalytic site (SignalChem/CAN), 1 μM HTRF KinEASE-TK Substrate-biotin, 1 μM ATP in 1× Kinase Buffer. For JAK1: 4 nM wt human JAK1, catalytic site (ThermoFisher/USA), 1 μM HTRF KinEASE-TK Substrate-biotin, 2.5 μM ATP in 1× Kinase Buffer. For JAK2: 1 nM wt human JAK2, catalytic site (SignalChem/CAN), 1 μM HTRF KinEASE-TK Substrate-biotin, 100 μM ATP in 1× Kinase Buffer.
as §2

The target in experiment [3] is T3, wt human TYK2, catalytic site (Homo sapiens, UniProt P29597).
T3 construct: wt human TYK2, catalytic site; purchased SignalChem
T3 sequence (P29597 897-1176 limits assumed): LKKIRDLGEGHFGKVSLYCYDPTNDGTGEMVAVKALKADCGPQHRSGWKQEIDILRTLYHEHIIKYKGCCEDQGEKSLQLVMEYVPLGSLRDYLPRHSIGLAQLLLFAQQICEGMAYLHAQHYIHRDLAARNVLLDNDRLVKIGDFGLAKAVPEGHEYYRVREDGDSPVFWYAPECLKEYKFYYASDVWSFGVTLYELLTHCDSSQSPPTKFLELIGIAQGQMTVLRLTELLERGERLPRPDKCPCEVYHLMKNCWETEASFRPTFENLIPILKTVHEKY
Put plainly: HTRF KinEASE assay, TYK2. Format: biochemical. Conditions: 1 μM ATP; read-out: IC50, Activity Toward TYK2. Summed up: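 Kinase reaction run at room temperature for at least 30 min: 2 nM TYK2 with 1 μM ATP, or 1 nM JAK2 with 100 μM ATP, each with 1 μM biotin-TK substrate. Phosphorylation detected by HTRF (60 min antibody/XL665) and evaluated from emission ratios.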

The target of experiment [4] is T4, G2019S human LRRK2, catalytic site (Homo sapiens, UniProt Q5S007, G2019S).
T4 construct: G2019S human LRRK2, catalytic site; purchased ThermoFisher
T4 sequence (Q5S007 970-2527 G2019S limits assumed): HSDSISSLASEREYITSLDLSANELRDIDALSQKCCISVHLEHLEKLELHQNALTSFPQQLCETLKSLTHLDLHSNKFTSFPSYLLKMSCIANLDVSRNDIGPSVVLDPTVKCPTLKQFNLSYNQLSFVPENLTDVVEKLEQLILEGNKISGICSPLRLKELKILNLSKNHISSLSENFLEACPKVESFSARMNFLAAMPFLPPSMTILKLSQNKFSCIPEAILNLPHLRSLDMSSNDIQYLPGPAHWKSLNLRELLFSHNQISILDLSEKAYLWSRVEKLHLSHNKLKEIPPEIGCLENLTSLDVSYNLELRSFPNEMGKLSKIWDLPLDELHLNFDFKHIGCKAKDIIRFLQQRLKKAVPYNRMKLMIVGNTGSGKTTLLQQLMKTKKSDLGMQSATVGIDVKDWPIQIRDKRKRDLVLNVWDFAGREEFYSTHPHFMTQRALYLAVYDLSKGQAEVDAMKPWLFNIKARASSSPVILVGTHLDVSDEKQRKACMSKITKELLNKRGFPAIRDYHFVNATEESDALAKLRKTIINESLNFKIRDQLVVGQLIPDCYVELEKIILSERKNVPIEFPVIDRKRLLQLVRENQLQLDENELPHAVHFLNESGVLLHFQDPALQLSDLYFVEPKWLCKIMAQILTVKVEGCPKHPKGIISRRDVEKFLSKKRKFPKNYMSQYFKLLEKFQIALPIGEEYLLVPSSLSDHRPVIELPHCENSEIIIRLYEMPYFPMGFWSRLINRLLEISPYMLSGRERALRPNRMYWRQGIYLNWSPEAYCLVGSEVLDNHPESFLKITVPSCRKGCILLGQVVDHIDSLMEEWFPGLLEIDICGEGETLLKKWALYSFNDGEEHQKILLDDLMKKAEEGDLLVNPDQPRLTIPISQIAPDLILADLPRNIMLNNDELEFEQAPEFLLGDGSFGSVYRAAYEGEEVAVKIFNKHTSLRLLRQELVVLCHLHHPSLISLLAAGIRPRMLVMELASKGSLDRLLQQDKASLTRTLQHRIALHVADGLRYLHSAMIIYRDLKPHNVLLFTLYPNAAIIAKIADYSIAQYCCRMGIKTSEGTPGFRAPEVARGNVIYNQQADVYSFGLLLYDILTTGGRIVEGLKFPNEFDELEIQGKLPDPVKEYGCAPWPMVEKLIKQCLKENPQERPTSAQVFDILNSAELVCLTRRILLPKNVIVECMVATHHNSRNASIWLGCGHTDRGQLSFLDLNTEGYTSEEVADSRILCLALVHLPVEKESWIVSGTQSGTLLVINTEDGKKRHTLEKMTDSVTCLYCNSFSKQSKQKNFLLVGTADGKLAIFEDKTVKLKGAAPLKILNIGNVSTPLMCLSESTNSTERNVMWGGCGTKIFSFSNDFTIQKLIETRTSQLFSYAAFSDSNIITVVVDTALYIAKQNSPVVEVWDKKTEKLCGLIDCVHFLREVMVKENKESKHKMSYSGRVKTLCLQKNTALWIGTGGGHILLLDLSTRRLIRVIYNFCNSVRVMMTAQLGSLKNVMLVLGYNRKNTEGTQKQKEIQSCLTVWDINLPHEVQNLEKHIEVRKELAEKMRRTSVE
Put plainly: TR-FRET LanthaScreen Eu Kinase Binding Assay, LRRK2 G2019S. The settings on record: LRRK2(G2019); one range stated for wt and G2019; read-out: IC50, Activity Toward LRRK2(G2019). Summed up: as §1

The target of experiment [5] is T5, wt human JAK1, catalytic site (Homo sapiens, UniProt P23458).
T5 construct: wt human JAK1, catalytic site; purchased ThermoFisher
T5 sequence (P23458 875-1153 limits assumed): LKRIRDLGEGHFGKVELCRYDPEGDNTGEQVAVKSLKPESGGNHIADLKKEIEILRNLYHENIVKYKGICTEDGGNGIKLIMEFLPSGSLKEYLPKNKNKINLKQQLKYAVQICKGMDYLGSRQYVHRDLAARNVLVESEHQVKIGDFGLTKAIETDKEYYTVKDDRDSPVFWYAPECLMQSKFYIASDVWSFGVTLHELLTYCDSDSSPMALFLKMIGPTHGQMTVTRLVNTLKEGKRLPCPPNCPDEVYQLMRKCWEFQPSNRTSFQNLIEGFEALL
Briefly: HTRF KinEASE assay, JAK1. The settings on record: 2.5 μM ATP; read-out: IC50, Activity Toward JAK1. Format: biochemical. The procedure, abridged: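 Compounds in DMSO dilution were mixed with kinase, biotin-TK substrate and ATP and reacted for ≥30 min at room temperature. Detection reagents (antibody, streptavidin-XL665) were read 60 min later as HTRF, with emission ratios analysed per KinEASE protocol.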

For experiment [6], the target named is T6, wt human NUAK1, full length (Homo sapiens, UniProt O60285).
T6 construct: 8 nM wt human NUAK1, full length (ThermoFisher/USA); purchased ThermoFisher
T6 sequence (O60285 1-661): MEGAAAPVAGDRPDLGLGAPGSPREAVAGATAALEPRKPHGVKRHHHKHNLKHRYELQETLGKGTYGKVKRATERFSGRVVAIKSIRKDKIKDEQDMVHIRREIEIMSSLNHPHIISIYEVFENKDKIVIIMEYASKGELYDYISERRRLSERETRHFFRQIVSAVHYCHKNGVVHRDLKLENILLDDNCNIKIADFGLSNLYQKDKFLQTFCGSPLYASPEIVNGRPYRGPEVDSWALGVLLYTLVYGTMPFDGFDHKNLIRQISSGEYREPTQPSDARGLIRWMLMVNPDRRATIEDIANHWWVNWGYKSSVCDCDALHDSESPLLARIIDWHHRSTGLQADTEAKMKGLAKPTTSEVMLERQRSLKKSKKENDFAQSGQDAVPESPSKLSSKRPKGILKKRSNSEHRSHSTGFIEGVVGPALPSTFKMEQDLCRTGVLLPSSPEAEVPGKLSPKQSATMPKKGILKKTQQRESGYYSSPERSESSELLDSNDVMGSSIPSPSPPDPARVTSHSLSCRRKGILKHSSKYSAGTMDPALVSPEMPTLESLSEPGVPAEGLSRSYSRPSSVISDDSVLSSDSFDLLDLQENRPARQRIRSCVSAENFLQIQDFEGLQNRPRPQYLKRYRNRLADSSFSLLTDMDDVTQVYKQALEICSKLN
Briefly: TR-FRET LanthaScreen Eu Kinase Binding Assay, NUAK1. Conditions: read-out: IC50, Activity Toward NUAK1. Summed up:
as §1

Some results are limits rather than exact numbers.

T1 sequence (Q5S007 970-2527 limits assumed): as the sequence (Q5S007 970-2527 G2019S limits assumed) above, with S1050G counted along it

In the case of `NC(=O)c1nn(-c2c(Cl)cccc2Cl)cc1Nc1ccc(-c2nnc3n2CCOC3)cc1` [compound 57, 1-(2,6-dichlorophenyl)-4-((4-(6,8-dihydro-5H-[1,2,4]triazolo[3,4-c][1,4]oxazin-3-yl)phenyl)amino)-1H-pyrazole-3-carboxamide], the concentration for half-maximal inhibition (IC50) in experiment [1] was 100 to 1000 nM; in experiment [2], 100 to 1000 nM; in experiment [3], less than 10 nM; in experiment [4], 100 to 1000 nM; in experiment [5] it was 100 to 1000 nM.
As for `CCn1cnnc1-c1ccc(Nc2cn(-c3c(Cl)cc(F)cc3Cl)nc2C(N)=O)cc1` [compound 414, 1-(2,6-dichloro-4-fluorophenyl)-4-((4-(4-ethyl-4H-1,2,4-triazol-3-yl)phenyl)amino)-1H-pyrazole-3-carboxamide], the IC50 in experiment [1] is 100 to 1000 nM; in experiment [2], 100 to 1000 nM; in experiment [3], less than 10 nM; in experiment [4] it was 100 to 1000 nM; in experiment [5] it was 10 to 100 nM.
For `NC(=O)c1nn(-c2c(Cl)cccc2Cl)cc1Nc1ccc(-n2ncnc2C2COC2)cc1` [compound 347, 1-(2,6-dichlorophenyl)-4-((4-(5-(oxetan-3-yl)-1H-1,2,4-triazol-1-yl)phenyl)amino)-1H-pyrazole-3-carboxamide], the half-maximal inhibitory concentration (IC50) in experiment [1] is 100 to 1000 nM; in experiment [2] it was 100 to 1000 nM; in experiment [3] it was less than 10 nM; in experiment [4] it was 100 to 1000 nM; in experiment [5], 10 to 100 nM.
For `CN(C)C1CCN(C(=O)c2ccc(Nc3nn(-c4c(Cl)cccc4Cl)nc3C(N)=O)cc2)CC1` [compound 122, 2-(2,6-dichlorophenyl)-5-((4-(4-(dimethylamino)piperidine-1-carbonyl)phenyl)amino)-2H-1,2,3-triazole-4-carboxamide], the IC50 in experiment [1] was 100 to 1000 nM; in experiment [2] it was 100 to 1000 nM; in experiment [3], less than 10 nM; in experiment [4], 100 to 1000 nM; in experiment [5] it was 10 to 100 nM.
In the case of `CN1CCN(C(=O)c2ccc(Nc3nn(-c4c(Cl)cccc4Cl)nc3C(N)=O)cc2)CC1` [compound 102, 2-(2,6-Dichloro-phenyl)-5-[4-(4-methyl-piperazine-1-carbonyl)-phenylamino]-2H-[1,2,3]triazole-4-carboxylic acid amide], the IC50 in experiment [2] was 100 to 1000 nM; in experiment [3], less than 10 nM; in experiment [5], less than 10 nM; in experiment [6], 100 to 1000 nM.
With `NC(=O)c1nn(-c2c(Cl)cccc2Cl)nc1Nc1ccc(C(=O)N2CCOCC2)cc1` [compound 101, 2-(2,6-Dichloro-phenyl)-5-[4-(morpholine-4-carbonyl)-phenylamino]-2H-[1,2,3]triazole-4-carboxylic acid amide], the half-inhibitory concentration (IC50) in experiment [2] was 100 to 1000 nM; in experiment [3], less than 10 nM; in experiment [5], less than 10 nM; in experiment [6], 100 to 1000 nM.
`NC(=O)c1nn(-c2c(Cl)cccc2Cl)nc1Nc1ccc(C(=O)N2CC(F)C2)cc1` [compound 129, 2-(2,6-dichlorophenyl)-5-((4-(3-fluoroazetidine-1-carbonyl)phenyl)amino)-2H-1,2,3-triazole-4-carboxamide]: the 50% inhibitory concentration (IC50) is 100 to 1000 nM in experiment [1]; 100 to 1000 nM in experiment [2]; less than 10 nM in experiment [3]; 100 to 1000 nM in experiment [4]; less than 10 nM in experiment [5].
With `Cc1cnnn1-c1ccc(Nc2nn(-c3c(Cl)cccc3Cl)nc2C(N)=O)cc1` [compound 131, 2-(2,6-dichlorophenyl)-5-((4-(5-methyl-1H-1,2,3-triazol-1-yl)phenyl)amino)-2H-1,2,3-triazole-4-carboxamide], the IC50 in experiment [1] is 100 to 1000 nM; in experiment [2] it was 100 to 1000 nM; in experiment [3], less than 10 nM; in experiment [4] it was 100 to 1000 nM; in experiment [5], 10 to 100 nM.
Consider `CN1CCN(C(=O)c2ccc(Nc3cn(-c4c(Cl)cccc4Cl)nc3C(N)=O)cc2)CC1` [compound 32, 1-(2,6-dichlorophenyl)-4-((4-(4-methylpiperazine-1-carbonyl)phenyl)amino)-1H-pyrazole-3-carboxamide], for which the 50% inhibitory concentration (IC50) in experiment [1] was 100 to 1000 nM; in experiment [2], 100 to 1000 nM; in experiment [3] it was less than 10 nM; in experiment [4], 100 to 1000 nM; in experiment [5], 10 to 100 nM.
For `CC(C)Cn1cnnc1-c1ccc(Nc2cn(-c3c(Cl)cccc3Cl)nc2C(N)=O)cc1` [compound 203, 1-(2,6-dichlorophenyl)-4-((4-(4-isobutyl-4H-1,2,4-triazol-3-yl)phenyl)amino)-1H-pyrazole-3-carboxamide], the IC50 in experiment [2] is 100 to 1000 nM; in experiment [3] it was less than 10 nM; in experiment [5], 10 to 100 nM; in experiment [6], 100 to 1000 nM.
`NC(=O)c1nn(-c2c(Cl)cccc2Cl)cc1Nc1ccc(C(=O)N2CC(F)C2)cc1` [compound 425, 1-(2,6-dichlorophenyl)-4-((4-(3-fluoroazetidine-1-carbonyl)phenyl)amino)-1H-pyrazole-3-carboxamide]: the half-inhibitory concentration (IC50) in experiment [1] was 100 to 1000 nM; in experiment [2], 100 to 1000 nM; in experiment [3] it was less than 10 nM; in experiment [4], 100 to 1000 nM; in experiment [5] it was 10 to 100 nM.
As to `NC(=O)c1nn(-c2c(Cl)cccc2Cl)nc1Nc1ccc(C(=O)N2CC(C(N)=O)C2)cc1` [compound 108], the 50% inhibitory concentration (IC50) in experiment [1] was 100 to 1000 nM; in experiment [2], 100 to 1000 nM; in experiment [3] it was less than 10 nM; in experiment [4] it was 100 to 1000 nM; in experiment [5], less than 10 nM.
For the compound `NC(=O)c1nn(-c2c(Cl)cccc2Cl)nc1Nc1ccc(-c2nnn[nH]2)cc1` [compound 103, 2-(2,6-Dichloro-phenyl)-5-[4-(1H-tetrazol-5-yl)-phenylamino]-2H-[1,2,3]triazole-4-carboxylic acid amide], the half-maximal inhibitory concentration (IC50) was 100 to 1000 nM in experiment [2], 10 to 100 nM in experiment [3], 10 to 100 nM in experiment [5] and 100 to 1000 nM in experiment [6].
For the compound `NC(=O)c1nn(-c2c(Cl)cccc2Cl)nc1Nc1ccc(-c2nncn2CC(F)F)cc1` [compound 113, 2-(2,6-dichlorophenyl)-5-((4-(4-(2,2-difluoroethyl)-4H-1,2,4-triazol-3-yl)phenyl)amino)-2H-1,2,3-triazole-4-carboxamide], the half-maximal inhibitory concentration (IC50) in experiment [1] was 100 to 1000 nM; in experiment [2], 100 to 1000 nM; in experiment [3], 10 to 100 nM; in experiment [4], 100 to 1000 nM; in experiment [5], less than 10 nM.

For the origin of these results see patent publication US20230373985A1 (Origenis Gmbh, priority 2020, published 2023).
